Test system: human mixed lymphocyte reaction (MLR)
Experiment: human mixed lymphocyte reaction (MLR) assay
Assay type: cell-based
Conditions: immunosuppressant activity, read-out: Human MLR IC50 ± S.E.M.
Procedure: The immunosuppressant activity of the compounds of the present invention was determined using the human mixed lymphocyte reaction (MLR) assay described by Kino, T. et al. in Transplantation Proceedings, XIX(5):36-39. Suppl. 6 (1987). […]

- IC50: 0.91 ± 0.36 nM
Structure (SMILES): CO[C@H]1C[C@@H]2CC[C@@H](C)[C@@](O)(O2)C(=O)C(=O)N2CCCC[C@H]2C(=O)O[C@H]([C@H](C)C[C@@H]2CC[C@@H](O)[C@H](OC)C2)CC(=O)[C@H](C)/C=C(\C)[C@@H](O)[C@@H](OC)C(=O)[C@H](C)C[C@H](C)/C=C/C=C/C=C/1C [Rapamycin, reference compound]

— EP1015459B9 (ABBOTT LABORATORIES, priority 1997, dated 1999)
